Measured values taken from patent US9382197B2, “Substituted hydroxamic acids and uses thereof” (Millennium Pharmaceuticals, Inc., priority 2010, dated 2016).

What follows are molecules tested against T1, purified human HDAC6 (Homo sapiens, UniProt Q9UBN7) (assay: HDAC6 Enzyme Assay). Details: bin: greater than 500 nM and less than 1 μM (lower bound in nM, upper bound in μM).
T1 construct: purchased BPS Bioscience 5006
T1 sequence (Q9UBN7 1-1215): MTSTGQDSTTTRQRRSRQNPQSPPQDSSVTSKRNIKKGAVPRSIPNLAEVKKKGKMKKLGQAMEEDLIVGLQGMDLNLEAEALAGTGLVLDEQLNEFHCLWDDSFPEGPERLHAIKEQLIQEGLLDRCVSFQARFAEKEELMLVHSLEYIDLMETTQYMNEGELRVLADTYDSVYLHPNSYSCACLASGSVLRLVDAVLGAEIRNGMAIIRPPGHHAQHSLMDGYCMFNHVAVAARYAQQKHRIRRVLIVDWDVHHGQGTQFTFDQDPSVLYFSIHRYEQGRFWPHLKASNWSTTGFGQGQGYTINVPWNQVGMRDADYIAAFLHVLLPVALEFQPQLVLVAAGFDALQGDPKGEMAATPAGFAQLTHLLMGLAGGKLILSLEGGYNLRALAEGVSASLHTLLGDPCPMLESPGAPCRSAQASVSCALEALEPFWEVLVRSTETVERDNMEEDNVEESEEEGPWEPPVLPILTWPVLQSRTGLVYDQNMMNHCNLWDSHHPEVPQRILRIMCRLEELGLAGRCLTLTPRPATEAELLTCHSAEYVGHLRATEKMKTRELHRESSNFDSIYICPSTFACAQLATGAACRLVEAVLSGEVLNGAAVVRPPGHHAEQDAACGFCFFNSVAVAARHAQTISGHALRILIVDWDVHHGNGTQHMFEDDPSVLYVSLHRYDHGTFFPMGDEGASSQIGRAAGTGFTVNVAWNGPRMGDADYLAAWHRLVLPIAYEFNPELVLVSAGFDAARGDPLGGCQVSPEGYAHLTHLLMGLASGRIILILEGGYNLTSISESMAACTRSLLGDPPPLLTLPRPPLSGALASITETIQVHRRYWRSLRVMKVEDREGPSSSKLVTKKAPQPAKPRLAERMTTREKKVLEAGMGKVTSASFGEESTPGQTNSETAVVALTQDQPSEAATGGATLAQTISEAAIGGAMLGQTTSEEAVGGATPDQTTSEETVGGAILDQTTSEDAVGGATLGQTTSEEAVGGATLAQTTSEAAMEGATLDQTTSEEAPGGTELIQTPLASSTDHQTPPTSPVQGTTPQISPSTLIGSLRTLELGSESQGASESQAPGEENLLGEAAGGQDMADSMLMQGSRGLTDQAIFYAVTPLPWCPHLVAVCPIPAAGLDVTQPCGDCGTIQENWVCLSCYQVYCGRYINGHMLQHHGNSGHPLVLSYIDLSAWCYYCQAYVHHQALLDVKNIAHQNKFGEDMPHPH
Type: biochemical
Description: To measure the inhibition of HDAC6 activity, purified human HDAC6 (BPS Bioscience; Cat. No. 5006) is incubated with substrate Ac-Arg-Gly-Lys(Ac)-AMC peptide (Bachem Biosciences; Cat. No. 1-1925) for 1 hour at 30° C. in the presence of test compounds or vehicle DMSO control. The reaction is stopped with the HDAC inhibitor trichostatin A (Sigma; Cat. No. T8552) and the amount of Arg-Gly-Lys-AMC generated is quantitated by digestion with trypsin (Sigma; Cat. No. T1426) and subsequent measurement of the amount of AMC released using a fluorescent plate reader (Pherastar; BMG Technologies) set at Ex 340 nm and Em 460 nm. Concentration response curves are generated by calculating the fluorescence increase in test compound-treated samples relative to DMSO-treated controls, and enzyme inhibition (IC50) values are determined from those curves.

Row | IC50 | Compound
1 | 500 to 1000 nM | CC(NC(=O)Cc1csc2ccc(Cl)cc12)c1cccc(C(=O)NO)c1 (centres unmarked) [Compound I-13, 3-(1-{[(5-chloro-1-benzothien-3-yl)acetyl]amino}ethyl)-N-hydroxybenzamide]
2 | 500 to 1000 nM | CC(C)C(NC(=O)c1ccnc2ccccc12)c1ccc(C(=O)NO)cc1 (centres unmarked) [Compound I-246, N-(1-{4-[(hydroxyamino)carbonyl]phenyl}-2-methylpropyl)quinoline-4-carboxamide]
3 | 500 to 1000 nM | CC(NC(=O)c1cscn1)c1cccc(C(=O)NO)c1 (centres unmarked) [Compound I-179, N-(1-{3-[(hydroxyamino)carbonyl]phenyl}ethyl)-1,3-thiazole-4-carboxamide]

Same assay, conditions: bin: greater than 1 μM

Row | Compound | IC50
4 | COc1cc(C(=O)NO)ccc1C(C)NC(=O)C(C)(C)C (centres unmarked) [Compound I-484, 4-{1-[(2,2-dimethylpropanoyl)amino]ethyl}-N-hydroxy-3-methoxybenzamide] | > 1000 nM
5 | COc1cc(C(=O)NO)ccc1C(C)NC(=O)C12CC3CC(CC(C3)C1)C2 (centres unmarked) [Compound I-483, N-(1-{4-[(hydroxyamino)carbonyl]-2-methoxyphenyl}ethyl)adamantane-1-carboxamide] | > 1000 nM
6 | Cc1noc(C)c1C(=O)NC(c1ccc(C(=O)NO)cc1)C(C)C (centres unmarked) [Compound I-238, N-(1-{4-[(hydroxyamino)carbonyl]phenyl}-2-methylpropyl)-3,5-dimethylisoxazole-4-carboxamide] | > 1000 nM

Results, then the molecule that gave them:

Row | IC50 | Compound
7 | > 1000 nM | CC(NC(=O)CC1CC1)c1ccc(C(=O)NO)cc1 (centres unmarked) [Compound I-379, 4-{1-[(cyclopropylacetyl)amino]ethyl}-N-hydroxybenzamide]
8 | > 1000 nM | CC(NC(=O)Cc1cccc(C(F)(F)F)c1)c1cccc(C(=O)NO)c1 (centres unmarked) [Compound I-314, N-hydroxy-3-[1-({[3-(trifluoromethyl)phenyl]acetyl}amino)ethyl]benzamide]
9 | > 1000 nM | Cc1nc(CC(=O)NC(C)c2ccc(C(=O)NO)cc2)c(C)s1 (centres unmarked) [Compound I-217, 4-(1-{[(2,5-dimethyl-1,3-thiazol-4-yl)acetyl]amino}ethyl)-N-hydroxybenzamide]
10 | > 1000 nM | CC(NC(=O)c1ccccc1C(F)(F)F)c1cccc(C(=O)NO)c1 (centres unmarked) [Compound I-57, N-(1-{3-[(hydroxyamino)carbonyl]phenyl}ethyl)-2-(trifluoromethyl)benzamide]

Same assay, conditions: purified human HDAC6, substrate Ac-Arg-Gly-Lys(Ac)-AMC, 1 hour at 30° C.; reported as bins

Row | Compound | IC50
11 | CCC[C@@H](NC(=O)NC(C)(C)C)c1ccc(C(=O)NO)cc1 [Compound I-380, 4-((1R)-1-{[(tert-butylamino)carbonyl]amino}butyl)-N-hydroxybenzamide] | 100 to 500 nM
12 | CC(NC(=O)c1cccs1)c1cccc(C(=O)NO)c1 (centres unmarked) [Compound I-267, N-(1-{3-[(hydroxyamino)carbonyl]phenyl}ethyl)thiophene-2-carboxamide] | 100 to 500 nM
13 | C[C@@H](NCC1(C)CCCCC1)c1ccc(C(=O)NO)cc1 [Compound I-489, N-hydroxy-4-((1R)-1-{[(1-methylcyclohexyl)methyl]amino}ethyl)benzamide] | 100 to 500 nM
14 | CC(C)[C@@H](NC(=O)c1cc2oc(-c3ccccc3)cc2n1C)c1ccc(C(=O)NO)cc1 [Compound I-332, N-((1R)-1-{4-[(hydroxyamino)carbonyl]phenyl}-2-methylpropyl)-4-methyl-2-phenyl-4H-furo[3,2-b]pyrrole-5-carboxamide] | < 100 nM
15 | CC(NC(=O)C1CCCC1)c1ccc(C(=O)NO)cc1 (centres unmarked) [Compound I-88, 4-{1-[(cyclopentylcarbonyl)amino]ethyl}-N-hydroxybenzamide] | < 100 nM
16 | CC(C)(C)C(NC(=O)c1ccc(-c2ccccc2)cc1)c1ccc(C(=O)NO)cc1 (centres unmarked) [Compound I-355, N-(1-{4-[(hydroxyamino)carbonyl]phenyl}-2,2-dimethylpropyl)biphenyl-4-carboxamide] | 100 to 500 nM
17 | CC(C)[C@@H](Nc1nc(-c2cc(-c3ccccc3)no2)cs1)c1ccc(C(=O)NO)cc1 [Compound I-519, N-hydroxy-4-((1R)-2-methyl-1-{[4-(3-phenylisoxazol-5-yl)-1,3-thiazol-2-yl]amino}propyl)benzamide] | < 100 nM
18 | CC(NC(=O)C12CC3CC(CC(C3)C1)C2)c1ccc(C(=O)NO)cc1 (centres unmarked) [Compound I-3, N-(1-{4-[(hydroxyamino)carbonyl]phenyl}ethyl)adamantane-1-carboxamide] | < 100 nM
19 | Cc1c(C(=O)NC(c2ccc(C(=O)NO)cc2)C(C)(C)C)cnn1-c1ccccc1 (centres unmarked) [Compound I-182, N-(1-{4-[(hydroxyamino)carbonyl]phenyl}-2,2-dimethylpropyl)-5-methyl-1-phenyl-1H-pyrazole-4-carboxamide] | 100 to 500 nM
20 | C[C@@H](NC(=O)c1cc2oc(-c3ccccc3)cc2n1C)c1cccc(C(=O)NO)c1 [Compound I-16, N-((1R)-1-{3-[(hydroxyamino)carbonyl]phenyl}ethyl)-4-methyl-2-phenyl-4H-furo[3,2-b]pyrrole-5-carboxamide] | 100 to 500 nM

Results, then the molecule that gave them:

Row | IC50 | Compound
21 | < 100 nM | C[C@@H](NC(=O)Nc1c(F)cccc1F)c1ccc(C(=O)NO)cc1 [Compound I-518, 4-[(1R)-1-({[(2,6-difluorophenyl)amino]carbonyl}amino)ethyl]-N-hydroxybenzamide]
22 | < 100 nM | CC(NC(=O)CCc1ccccc1)c1ccc(C(=O)NO)cc1 (centres unmarked) [Compound I-45, N-hydroxy-4-{1-[(3-phenylpropanoyl)amino]ethyl}benzamide]
23 | < 100 nM | Cc1c(C(=O)N[C@@H](c2ccc(C(=O)NO)cc2)C(F)(F)F)oc2ccccc12 [Compound I-304, 3-methyl-N-((1S)-2,2,2-trifluoro-1-{4-[(hydroxyamino)carbonyl]phenyl}ethyl)-1-benzofuran-2-carboxamide]
24 | 100 to 500 nM | CC(NS(=O)(=O)c1ccc(Cl)cc1)c1ccc(C(=O)NO)cc1 (centres unmarked) [Compound I-302, 4-(1-{[(4-chlorophenyl)sulfonyl]amino}ethyl)-N-hydroxybenzamide]
25 | < 100 nM | CC(C)C(NC(=O)c1cc2cc(Cl)ccc2[nH]1)c1ccc(C(=O)NO)cc1 (centres unmarked) [Compound I-247, 5-chloro-N-(1-{4-[(hydroxyamino)carbonyl]phenyl}-2-methylpropyl)-1H-indole-2-carboxamide]
26 | < 100 nM | Cc1nc(C(=O)NC(C)c2ccc(C(=O)NO)cc2)cs1 (centres unmarked) [Compound I-278, N-(1-{4-[(hydroxyamino)carbonyl]phenyl}ethyl)-2-methyl-1,3-thiazole-4-carboxamide]
27 | < 100 nM | CC(C)C(NC(=O)c1ccc2occc2c1)c1ccc(C(=O)NO)cc1 (centres unmarked) [Compound I-194, N-(1-{4-[(hydroxyamino)carbonyl]phenyl}-2-methylpropyl)-1-benzofuran-5-carboxamide]
28 | 100 to 500 nM | CC(NC(=O)C1CC1)c1ccc(C(=O)NO)cc1 (centres unmarked) [Compound I-239, 4-{1-[(cyclopropylcarbonyl)amino]ethyl}-N-hydroxybenzamide]
29 | < 100 nM | Cc1ccc(C2(C(=O)NC(C)c3ccc(C(=O)NO)cc3)CC2)cc1 (centres unmarked) [Compound I-264, N-hydroxy-4-[1-({[1-(4-methylphenyl)cyclopropyl]carbonyl}amino)ethyl]benzamide]
30 | 100 to 500 nM | CC(NC(=O)NC1CCCCC1)c1ccc(C(=O)NO)cc1 (centres unmarked) [Compound I-395, 4-(1-{[(cyclohexylamino)carbonyl]amino}ethyl)-N-hydroxybenzamide]
31 | 100 to 500 nM | CC(C)C(NC(=O)c1ccc(C(C)(C)C)cc1)c1ccc(C(=O)NO)cc1 (centres unmarked) [Compound I-192, 4-tert-butyl-N-(1-{4-[(hydroxyamino)carbonyl]phenyl}-2-methylpropyl)benzamide]
32 | < 100 nM | CC(NC(=O)Nc1ccc(C(F)(F)F)cc1Cl)c1ccc(C(=O)NO)cc1 (centres unmarked) [Compound I-163, 4-{1-[({[2-chloro-4-(trifluoromethyl)phenyl]amino}carbonyl)amino]ethyl}-N-hydroxybenzamide]
